Laboratory results: patent US9765300B2, “Hepatic cell lines and stem-like cells, methods of making and using the same” (priority 2014, dated 2017)

Columns and labels:
Hepa-SC cells = details: 10 μM; cited from earlier work
HEPARG® cells = test: Comparative study of epigenetic modulators for HEPARG reprogramming to Hepa-SC (toxicity in culture); type: cell-based, human; details: even at low concentration, in our culture conditions
Source text: • Step 1: Culturing the parental cells in a culture medium that has been modified in order to eliminate all factors supporting differentiation processes during a 2-passage culture period; • Step 2: Inducing mechanical stress such as shape constraint, onto the cells in order to generate a reprogramming signal toward stemness that should be associated with occurrence of a mechano-transduction signaling in all the cells in a synchronized manner, resulting in expression of a “stem cell signature” at the genome level; • Step 3: Inducing the stability of this stem cell fate by epigenetic mechanism, for instance by exposing the cells to methylation/acetylation modulators such as HDAC molecules. Epigenetic modifications refer to mitotically heritable changes in gene expression that are not coded in the DNA sequence itself (Levenson J M, Sweatt J D., 2005). The chosen epigenetic molecule should neither alter cell proliferation activity nor provoke toxicity effects and/or apoptotic induction. 5-azacytidine inhibits DNA methylation. It has been preferentially chosen for HEPARG® reprogramming to Hepa-SC stem-like cells after comparative study with Bix 01294, a small molecule known to inhibit the histone H3 methylation. […]

Hepa-RP = test: Cholestatic drug screening: alterations of bile saccular canaliculi in Hepa-RP; type: cell-based, human; details: Hepa-RP at passage 29 (10 passages with a corticoid-free medium)

Nc1ncn([C@H]2C[C@H](O)[C@@H](CO)O2)c(=O)n1 [5-aza-2′-deoxycytidine]
inhibition of cell proliferation (Hepa-SC cells): does not inhibit cell proliferation
visible cell toxicity (Hepa-SC cells): does not induce visible cell toxicity

COc1cc2nc(N3CCCN(C)CC3)nc(NC3CCN(Cc4ccccc4)CC3)c2cc1OC [Bix 01294]
toxicity compared with 5-azacytidine (HEPARG® cells): much more toxic

CN(C)CCCN1c2ccccc2Sc2ccc(Cl)cc21 [Chlorpromazine]
cholestatic effect on the bile saccular canaliculi (alteration) (Hepa-RP): constriction

C[S+](C)[O-] [DMSO]
induction of three distinct CYP450 enzymes activity (CYP450 enzymes): induced

O=S(=O)(c1cccc2cnccc12)N1CCCNCC1 [Fasudil]
cholestatic effect on the bile saccular canaliculi (alteration) (Hepa-RP): dilatation
